The record followed here is the OligoGym collection.

HELM strings list units from the 5' end as sugar, base in round brackets, then linkage (d deoxyribose, r ribose, m 2'-O-methyl, p phosphodiester). Strings are as the collection lists them; they lack the last nucleoside at the 3' end of the tested compound. [moe] = 2'-O-(2-methoxyethyl) (MOE); [sp] = phosphorothioate linkage; [m5C] = 5-methylcytosine

In this data set the target is ATXN2. Nature of the data set: mouse, dose not given. To be noted: ASO.

Turning to “RNA1{[moe](T)[sp].[moe](A)p.[moe]([m5C])p.[moe](T)p.[moe](T)p.[moe](T)p.d(T)[sp].d([m5C])[sp].d(T)[sp].d([m5C])[sp].d(A)[sp].d(T)[sp].d(G)[sp].d(T)[sp].d(G)[sp].d([m5C])[sp].[moe](G)p.[moe](G)[sp].[moe]([m5C])}$$$$ (last 3' nucleoside missing)”, the 3 h FOB score worked out at 5.5 score 0-7.

As for “RNA1{[moe](T)[sp].[moe](A)p.[moe]([m5C])p.[moe](T)p.[moe](T)p.d(T)[sp].d(T)[sp].d([m5C])[sp].d(T)[sp].d([m5C])[sp].d(A)[sp].d(T)[sp].d(G)[sp].d(T)[sp].d(G)[sp].[moe]([m5C])p.[moe](G)p.[moe](G)[sp].[moe]([m5C])}$$$$ (last 3' nucleoside missing)”, the 3 h FOB score came to 3.75 score 0-7. Consider “RNA1{[moe](T)[sp].[moe](A)p.[moe]([m5C])p.[moe](T)p.[moe](T)p.d([m5C])[sp].d(A)[sp].d([m5C])[sp].d(A)[sp].d(T)[sp].d(T)[sp].d(T)[sp].d(G)[sp].d(G)[sp].d(A)[sp].[moe](G)p.[moe]([m5C])p.[moe]([m5C])[sp].[moe]([m5C])}$$$$ (last 3' nucleoside missing)”, for which the 3 h FOB score was found to be 5.25 score 0-7. The result for “RNA1{[moe](T)[sp].[moe](A)p.[moe]([m5C])p.[moe](T)p.[moe]([m5C])p.d(T)[sp].d([m5C])[sp].d([m5C])[sp].d(A)[sp].d(T)[sp].d(T)[sp].d(A)[sp].d(T)[sp].d(T)[sp].d(T)[sp].[moe]([m5C])p.[moe](T)p.[moe](T)[sp].[moe]([m5C])}$$$$ (last 3' nucleoside missing)” reads 2.25 score 0-7; that for “RNA1{[moe](T)[sp].[moe](A)p.[moe]([m5C])p.[moe](T)p.d(T)[sp].d(T)[sp].d(T)[sp].d([m5C])[sp].d(T)[sp].d([m5C])[sp].d(A)[sp].d(T)[sp].d(G)[sp].d(T)[sp].[moe](G)p.[moe]([m5C])p.[moe](G)p.[moe](G)[sp].[moe]([m5C])}$$$$ (last 3' nucleoside missing)”, 1.75 score 0-7. The value for “RNA1{[moe](T)[sp].[moe](G)[sp].[moe]([m5C])[sp].[moe](A)[sp].[moe](T)[sp].d(A)[sp].d(G)[sp].d(A)[sp].d(T)[sp].d(T)[sp].d([m5C])[sp].d([m5C])[sp].d(A)[sp].d(T)[sp].d([m5C])[sp].[moe](A)[sp].[moe](A)[sp].[moe](A)[sp].[moe](A)}$$$$ (last 3' nucleoside missing)” was 7 score 0-7; that for “RNA1{[moe](T)[sp].[moe](G)p.[moe](A)p.[moe](G)p.[moe](T)p.d(T)[sp].d([m5C])[sp].d(A)[sp].d([m5C])[sp].d([m5C])[sp].d(T)[sp].d(G)[sp].d([m5C])[sp].d(A)[sp].d(T)[sp].[moe]([m5C])p.[moe]([m5C])p.[moe]([m5C])[sp].[moe](A)}$$$$ (last 3' nucleoside missing)” was 5.75 score 0-7. “RNA1{[moe](T)[sp].[moe](G)p.[moe](A)p.[moe](T)p.[moe]([m5C])p.d(T)[sp].d(T)[sp].d(G)[sp].d(T)[sp].d(G)[sp].d(T)[sp].d(A)[sp].d(T)[sp].d(A)[sp].d(T)[sp].[moe](A)p.[moe](T)p.[moe](T)[sp].[moe](A)}$$$$ (last 3' nucleoside missing)” showed a 3 h FOB score of 6 score 0-7. The result for “RNA1{[moe](T)[sp].[moe](G)p.[moe](G)p.[moe](A)p.[moe](T)[sp].d(T)[sp].d([m5C])[sp].d(T)[sp].d(G)[sp].d(T)[sp].d(A)[sp].d([m5C])[sp].d(T)[sp].[moe](T)p.[moe](T)p.[moe](T)[sp].[moe]([m5C])}$$$$ (last 3' nucleoside missing)” reads 5.25 score 0-7. “RNA1{[moe](T)[sp].[moe](G)p.[moe](G)p.[moe](A)p.[moe](T)p.[moe](T)p.d([m5C])[sp].d(T)[sp].d(G)[sp].d(T)[sp].d(A)[sp].d([m5C])[sp].d(T)[sp].d(T)[sp].d(T)[sp].d(T)[sp].[moe]([m5C])p.[moe](T)[sp].[moe]([m5C])}$$$$ (last 3' nucleoside missing)” gave a 3 h FOB score of 1 score 0-7. Turning to “RNA1{[moe](T)[sp].[moe](G)p.[moe](G)p.[moe](A)p.[moe](T)p.d(T)[sp].d([m5C])[sp].d(T)[sp].d(G)[sp].d(T)[sp].d(A)[sp].d([m5C])[sp].d(T)[sp].d(T)[sp].d(T)[sp].[moe](T)p.[moe]([m5C])p.[moe](T)[sp].[moe]([m5C])}$$$$ (last 3' nucleoside missing)”, the 3 h FOB score is 5.25 score 0-7. The result for “RNA1{[moe](T)[sp].[moe](G)p.[moe](G)p.[moe](A)p.d(T)[sp].d(T)[sp].d([m5C])[sp].d(T)[sp].d(G)[sp].d(T)[sp].d(A)[sp].d([m5C])[sp].d(T)[sp].d(T)[sp].[moe](T)p.[moe](T)p.[moe]([m5C])p.[moe](T)[sp].[moe]([m5C])}$$$$ (last 3' nucleoside missing)” reads 3.5 score 0-7; that for “RNA1{[moe](T)[sp].[moe](G)p.[moe](G)p.[moe](T)p.[moe](G)[sp].d(G)[sp].d(T)[sp].d(G)[sp].d(T)[sp].d(G)[sp].d([m5C])[sp].d(G)[sp].d([m5C])[sp].[moe](A)p.[moe](T)p.[moe](G)[sp].[moe](T)}$$$$ (last 3' nucleoside missing)”, 6.25 score 0-7; that for “RNA1{[moe](T)[sp].[moe](G)p.[moe](G)p.[moe](T)p.[moe](G)p.[moe](G)p.d(T)[sp].d(G)[sp].d(T)[sp].d(G)[sp].d([m5C])[sp].d(G)[sp].d([m5C])[sp].d(A)[sp].d(T)[sp].d(G)[sp].[moe](T)p.[moe](A)[sp].[moe](G)}$$$$ (last 3' nucleoside missing)”, 7 score 0-7. The value for “RNA1{[moe](T)[sp].[moe](G)p.[moe](G)p.[moe](T)p.[moe](G)p.d(G)[sp].d(T)[sp].d(G)[sp].d(T)[sp].d(G)[sp].d([m5C])[sp].d(G)[sp].d([m5C])[sp].d(A)[sp].d(T)[sp].[moe](G)p.[moe](T)p.[moe](A)[sp].[moe](G)}$$$$ (last 3' nucleoside missing)” was 6.5 score 0-7; that for “RNA1{[moe](T)[sp].[moe](G)p.[moe](G)p.[moe](T)p.[moe](T)p.d([m5C])[sp].d([m5C])[sp].d(T)[sp].d(T)[sp].d(A)[sp].d([m5C])[sp].d(A)[sp].d(A)[sp].d(T)[sp].d(T)[sp].[moe](A)p.[moe](T)p.[moe]([m5C])[sp].[moe](T)}$$$$ (last 3' nucleoside missing)” was 0 score 0-7.

Substance “RNA1{[moe](T)[sp].[moe](G)p.[moe](G)p.[moe](T)p.d(G)[sp].d(G)[sp].d(T)[sp].d(G)[sp].d(T)[sp].d(G)[sp].d([m5C])[sp].d(G)[sp].d([m5C])[sp].d(A)[sp].[moe](T)p.[moe](G)p.[moe](T)p.[moe](A)[sp].[moe](G)}$$$$ (last 3' nucleoside missing)” displayed a 3 h FOB score of 6.75 score 0-7.

Turning to “RNA1{[moe](T)[sp].[moe](G)p.[moe](T)p.[moe](A)[sp].[moe]([m5C])[sp].d(T)[sp].d(T)[sp].d([m5C])[sp].d(A)[sp].d([m5C])[sp].d(A)[sp].d(T)[sp].d(T)[sp].d(T)[sp].d(G)[sp].[moe](G)p.[moe](A)p.[moe](G)[sp].[moe]([m5C])}$$$$ (last 3' nucleoside missing)”, the 3 h FOB score came to 3 score 0-7. “RNA1{[moe](T)[sp].[moe](G)p.[moe](T)p.[moe](A)p.[moe]([m5C])[sp].d(T)[sp].d(T)[sp].d(T)[sp].d(T)[sp].d([m5C])[sp].d(T)[sp].d([m5C])[sp].d(A)[sp].[moe](T)p.[moe](G)p.[moe](T)[sp].[moe](G)}$$$$ (last 3' nucleoside missing)”: the 3 h FOB score was determined as 0 score 0-7.

The substance “RNA1{[moe](T)[sp].[moe](G)p.[moe](T)p.[moe](A)p.[moe]([m5C])[sp].d(T)[sp].d(T)[sp].d([m5C])[sp].d(A)[sp].d([m5C])[sp].d(A)[sp].d(T)[sp].d(T)[sp].[moe](T)p.[moe](G)p.[moe](G)[sp].[moe](A)}$$$$ (last 3' nucleoside missing)” displayed a 3 h FOB score of 3.5 score 0-7. The value for “RNA1{[moe](T)[sp].[moe](G)p.[moe](T)p.[moe](A)p.[moe]([m5C])[sp].d(T)[sp].d(T)[sp].d([m5C])[sp].d(A)[sp].d([m5C])[sp].d(A)[sp].d(T)[sp].d(T)[sp].d(T)[sp].d(G)[sp].[moe](G)p.[moe](A)p.[moe](G)[sp].[moe]([m5C])}$$$$ (last 3' nucleoside missing)” was 3 score 0-7; that for “RNA1{[moe](T)[sp].[moe](G)p.[moe](T)p.[moe](A)p.[moe]([m5C])p.[moe](T)p.d(T)[sp].d([m5C])[sp].d(A)[sp].d([m5C])[sp].d(A)[sp].d(T)[sp].d(T)[sp].d(T)[sp].d(G)[sp].d(G)[sp].[moe](A)p.[moe](G)[sp].[moe]([m5C])}$$$$ (last 3' nucleoside missing)” was 2.5 score 0-7. “RNA1{[moe](T)[sp].[moe](G)p.[moe](T)p.[moe](A)p.[moe]([m5C])p.d(T)[sp].d(T)[sp].d(T)[sp].d(T)[sp].d([m5C])[sp].d(T)[sp].d([m5C])[sp].d(A)[sp].d(T)[sp].d(G)[sp].[moe](T)p.[moe](G)p.[moe]([m5C])[sp].[moe](G)}$$$$ (last 3' nucleoside missing)”: the 3 h FOB score came to 1 score 0-7. The value for “RNA1{[moe](T)[sp].[moe](G)p.[moe](T)p.[moe](A)p.[moe]([m5C])p.d(T)[sp].d(T)[sp].d([m5C])[sp].d(A)[sp].d(A)[sp].d(A)[sp].d(T)[sp].d(T)[sp].d(T)[sp].d(T)[sp].[moe](G)p.[moe](T)p.[moe](T)[sp].[moe](T)}$$$$ (last 3' nucleoside missing)” was 0 score 0-7; that for “RNA1{[moe](T)[sp].[moe](G)p.[moe](T)p.[moe](A)p.[moe]([m5C])p.d(T)[sp].d(T)[sp].d([m5C])[sp].d(A)[sp].d([m5C])[sp].d(A)[sp].d(T)[sp].d(T)[sp].d(T)[sp].d(G)[sp].[moe](G)p.[moe](A)p.[moe](G)[sp].[moe]([m5C])}$$$$ (last 3' nucleoside missing)” was 2 score 0-7. In the case of “RNA1{[moe](T)[sp].[moe](G)p.[moe](T)p.[moe](A)p.d([m5C])[sp].d(T)[sp].d(T)[sp].d([m5C])[sp].d(A)[sp].d([m5C])[sp].d(A)[sp].d(T)[sp].d(T)[sp].d(T)[sp].[moe](G)p.[moe](G)p.[moe](A)p.[moe](G)[sp].[moe]([m5C])}$$$$ (last 3' nucleoside missing)”, the 3 h FOB score was determined as 1 score 0-7.
